The record followed here is patent publication EP0408806A1, “Antihypercholesterolemic agents” (MERCK & CO. INC., priority 1989, dated 1991).

This assay has as its target T1, HMG-CoA reductase (Rattus norvegicus, UniProt P51639).
T1 sequence (P51639 1-887): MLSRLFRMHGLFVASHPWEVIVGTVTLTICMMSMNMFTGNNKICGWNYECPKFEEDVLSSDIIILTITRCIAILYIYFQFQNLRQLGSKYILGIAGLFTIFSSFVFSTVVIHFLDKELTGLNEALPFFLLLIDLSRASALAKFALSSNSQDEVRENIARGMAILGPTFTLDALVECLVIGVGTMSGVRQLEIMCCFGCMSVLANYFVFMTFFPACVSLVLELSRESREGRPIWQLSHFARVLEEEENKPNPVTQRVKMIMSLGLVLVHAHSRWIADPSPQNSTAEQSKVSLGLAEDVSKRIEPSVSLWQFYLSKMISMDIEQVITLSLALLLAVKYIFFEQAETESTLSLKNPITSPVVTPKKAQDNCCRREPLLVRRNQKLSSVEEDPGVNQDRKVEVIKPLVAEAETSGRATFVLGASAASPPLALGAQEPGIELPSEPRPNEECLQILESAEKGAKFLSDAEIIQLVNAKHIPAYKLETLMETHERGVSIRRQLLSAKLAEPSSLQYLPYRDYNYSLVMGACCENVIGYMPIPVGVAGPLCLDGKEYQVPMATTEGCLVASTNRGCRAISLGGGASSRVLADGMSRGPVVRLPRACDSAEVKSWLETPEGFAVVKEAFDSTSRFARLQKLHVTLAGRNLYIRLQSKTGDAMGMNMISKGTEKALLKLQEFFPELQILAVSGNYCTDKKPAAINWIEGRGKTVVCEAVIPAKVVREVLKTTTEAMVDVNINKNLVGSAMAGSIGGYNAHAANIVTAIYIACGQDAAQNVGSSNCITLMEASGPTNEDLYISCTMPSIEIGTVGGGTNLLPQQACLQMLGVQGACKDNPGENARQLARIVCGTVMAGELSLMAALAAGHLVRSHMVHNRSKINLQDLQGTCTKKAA
Kind of assay: intrinsic HMG-CoA reductase inhibition, in vitro protocol published in J. Med. Chem., 28, p. 347-358 (1985). It is filed as biochemical. To be noted: read-out: IC₅₀ value (converted). The protocol: The intrinsic HMG-CoA reductase inhibition activity of the claimed compounds is measured in the in vitro protocol published in J. Med. Chem., 28, p. 347-358 (1985).

Consider `CCC(C)(C)C(=O)OC1CC(C)=CC2=CC(=O)C(C)C(CCC3CC(O)CC(=O)O3)C21` [6(R)-[2-[8(S)-(2,2-dimethylbutyryloxy)-2(S),6-dimethyl-3-oxo-1,2,7,8,8a(R)-pentahydronaphthyl-1(S)]ethyl]-4(R)-hydroxy-3,4,5,6-tetrahydro-2H-pyran-2-one], for which the IC50 is 4.62 nM.
